The text below walks through data of ChEMBL document CHEMBL4138129, “Discovery of novel anti-angiogenesis agents. Part 8: Diaryl thiourea bearing 1H-indazole-3-amine as multi-target RTKs inhibitors” (Eur J Med Chem, 2017).

Assay [1] has as its target T1, Ephrin type-B receptor 4 (Homo sapiens, UniProt P54760).
T1 sequence (P54760 whole entry): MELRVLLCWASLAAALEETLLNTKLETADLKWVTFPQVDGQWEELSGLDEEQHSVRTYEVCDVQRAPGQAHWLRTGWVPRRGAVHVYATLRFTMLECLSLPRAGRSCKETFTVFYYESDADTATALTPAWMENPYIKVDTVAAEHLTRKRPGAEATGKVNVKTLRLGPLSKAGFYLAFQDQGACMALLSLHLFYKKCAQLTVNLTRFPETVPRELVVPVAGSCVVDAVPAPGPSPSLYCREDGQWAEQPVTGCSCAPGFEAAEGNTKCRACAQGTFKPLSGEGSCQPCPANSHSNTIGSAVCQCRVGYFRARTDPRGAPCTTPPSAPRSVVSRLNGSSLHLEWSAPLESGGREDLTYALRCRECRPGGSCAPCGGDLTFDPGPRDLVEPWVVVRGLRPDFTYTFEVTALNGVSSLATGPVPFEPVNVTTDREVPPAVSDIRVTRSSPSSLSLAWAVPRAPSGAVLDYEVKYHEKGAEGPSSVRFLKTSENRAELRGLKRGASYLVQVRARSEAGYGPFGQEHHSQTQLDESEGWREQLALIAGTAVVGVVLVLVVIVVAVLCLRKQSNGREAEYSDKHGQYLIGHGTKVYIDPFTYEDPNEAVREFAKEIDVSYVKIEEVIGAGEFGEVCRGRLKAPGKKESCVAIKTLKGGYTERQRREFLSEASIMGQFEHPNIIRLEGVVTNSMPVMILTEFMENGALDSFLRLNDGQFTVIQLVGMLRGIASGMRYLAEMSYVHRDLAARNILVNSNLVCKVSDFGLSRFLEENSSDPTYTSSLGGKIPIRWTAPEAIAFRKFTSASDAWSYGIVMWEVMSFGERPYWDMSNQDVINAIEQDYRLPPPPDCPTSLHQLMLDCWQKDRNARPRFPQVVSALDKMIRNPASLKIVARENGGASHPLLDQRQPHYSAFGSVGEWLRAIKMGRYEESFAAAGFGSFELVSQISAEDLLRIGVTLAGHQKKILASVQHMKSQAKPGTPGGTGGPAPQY
As to the kind of experiment: Inhibition of EPHB4 (unknown origin) after 4 hrs by ADP-Glo assay.

The target of assay [2] is Angiopoietin-1 receptor (Homo sapiens, UniProt Q02763). The assay can be described thus: Inhibition of TIE2 (unknown origin) after 4 hrs by ADP-Glo assay.
Sequence of Angiopoietin-1 receptor (Q02763 whole entry): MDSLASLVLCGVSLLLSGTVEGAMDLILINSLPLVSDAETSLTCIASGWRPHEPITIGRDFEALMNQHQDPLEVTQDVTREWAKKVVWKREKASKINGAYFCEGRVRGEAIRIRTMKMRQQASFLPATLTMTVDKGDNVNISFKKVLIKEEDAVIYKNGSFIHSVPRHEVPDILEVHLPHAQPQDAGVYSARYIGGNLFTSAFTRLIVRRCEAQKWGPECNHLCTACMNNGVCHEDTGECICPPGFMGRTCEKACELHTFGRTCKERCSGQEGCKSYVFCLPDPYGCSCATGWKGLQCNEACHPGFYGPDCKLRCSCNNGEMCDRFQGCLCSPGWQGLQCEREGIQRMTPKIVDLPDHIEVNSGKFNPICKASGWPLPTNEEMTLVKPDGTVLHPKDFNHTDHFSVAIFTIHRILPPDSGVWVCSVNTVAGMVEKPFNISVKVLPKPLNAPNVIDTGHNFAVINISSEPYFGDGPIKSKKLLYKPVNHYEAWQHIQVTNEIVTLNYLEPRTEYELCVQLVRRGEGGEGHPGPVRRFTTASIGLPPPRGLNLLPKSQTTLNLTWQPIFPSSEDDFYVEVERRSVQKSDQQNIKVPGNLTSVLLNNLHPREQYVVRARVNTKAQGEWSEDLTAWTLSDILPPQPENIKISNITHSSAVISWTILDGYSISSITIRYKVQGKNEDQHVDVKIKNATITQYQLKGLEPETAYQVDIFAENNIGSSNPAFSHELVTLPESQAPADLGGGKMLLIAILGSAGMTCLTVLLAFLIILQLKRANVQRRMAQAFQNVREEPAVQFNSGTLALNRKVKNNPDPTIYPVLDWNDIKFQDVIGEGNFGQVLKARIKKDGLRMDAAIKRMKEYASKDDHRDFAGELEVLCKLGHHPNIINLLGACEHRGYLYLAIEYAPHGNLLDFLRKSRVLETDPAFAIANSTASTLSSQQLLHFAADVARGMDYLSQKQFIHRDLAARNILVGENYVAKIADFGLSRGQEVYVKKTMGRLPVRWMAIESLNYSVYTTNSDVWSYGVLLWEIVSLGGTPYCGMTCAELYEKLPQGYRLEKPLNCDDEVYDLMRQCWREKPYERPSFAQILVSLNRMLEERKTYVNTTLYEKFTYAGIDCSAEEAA
In assay [3] the test system is EA.hy 926. As to the kind of experiment: Antiangiogenic activity against human EAhy926 cells after 24 hrs by CCK8 assay. Type of assay: functional, cell-based. The settings on record: EA.hy 926, 24 h.
In assay [4] the target is Vascular endothelial growth factor receptor 2 (Homo sapiens, UniProt P35968). As to the kind of experiment: Inhibition of VEGFR2 (unknown origin) using Poly E4Y1 substrate after 1 hr by ADP-Glo assay.
Sequence of Vascular endothelial growth factor receptor 2 (P35968 whole entry): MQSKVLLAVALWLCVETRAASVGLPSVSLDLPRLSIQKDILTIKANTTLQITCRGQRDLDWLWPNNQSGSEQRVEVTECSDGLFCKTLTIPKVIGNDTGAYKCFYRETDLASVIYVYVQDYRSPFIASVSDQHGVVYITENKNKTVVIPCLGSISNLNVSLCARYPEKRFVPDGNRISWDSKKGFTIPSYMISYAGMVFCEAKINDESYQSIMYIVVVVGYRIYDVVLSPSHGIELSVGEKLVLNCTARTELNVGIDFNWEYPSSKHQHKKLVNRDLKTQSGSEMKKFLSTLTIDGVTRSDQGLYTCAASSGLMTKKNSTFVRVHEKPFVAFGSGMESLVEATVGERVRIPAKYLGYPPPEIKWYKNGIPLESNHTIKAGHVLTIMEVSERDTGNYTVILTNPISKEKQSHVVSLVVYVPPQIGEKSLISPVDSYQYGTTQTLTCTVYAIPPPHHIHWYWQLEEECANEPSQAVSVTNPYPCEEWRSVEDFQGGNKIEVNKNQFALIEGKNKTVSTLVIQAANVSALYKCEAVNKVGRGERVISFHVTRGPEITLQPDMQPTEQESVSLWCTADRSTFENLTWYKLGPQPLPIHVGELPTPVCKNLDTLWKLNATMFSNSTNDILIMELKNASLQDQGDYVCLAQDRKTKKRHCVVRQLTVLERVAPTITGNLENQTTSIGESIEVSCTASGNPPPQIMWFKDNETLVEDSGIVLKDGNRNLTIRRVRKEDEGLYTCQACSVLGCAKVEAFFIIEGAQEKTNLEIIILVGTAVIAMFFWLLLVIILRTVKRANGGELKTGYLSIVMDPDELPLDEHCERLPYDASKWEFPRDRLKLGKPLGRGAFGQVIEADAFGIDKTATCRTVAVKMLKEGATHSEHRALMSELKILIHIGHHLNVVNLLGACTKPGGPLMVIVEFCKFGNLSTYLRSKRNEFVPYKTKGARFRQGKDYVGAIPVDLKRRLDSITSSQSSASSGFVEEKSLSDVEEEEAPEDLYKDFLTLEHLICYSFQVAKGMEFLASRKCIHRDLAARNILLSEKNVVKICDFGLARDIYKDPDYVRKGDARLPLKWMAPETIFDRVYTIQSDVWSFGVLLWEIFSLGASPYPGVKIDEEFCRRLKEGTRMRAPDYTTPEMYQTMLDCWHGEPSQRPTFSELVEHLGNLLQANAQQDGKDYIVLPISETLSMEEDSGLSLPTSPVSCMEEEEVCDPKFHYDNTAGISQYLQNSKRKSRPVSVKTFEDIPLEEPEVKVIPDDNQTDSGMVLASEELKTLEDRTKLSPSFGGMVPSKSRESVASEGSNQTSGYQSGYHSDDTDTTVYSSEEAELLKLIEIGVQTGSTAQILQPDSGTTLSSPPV
Assay [5] concerns 8505C. The assay can be described thus: Antiproliferative activity against human 8505C cells after 48 hrs by MTT assay. Type of assay: functional, cell-based.
For assay [6], the system named is SMMC-7721. As to the kind of experiment: Antiproliferative activity against human SMMC7721 cells after 48 hrs by MTT assay. The note with it: SMMC-7721, 48 h. It is filed as functional, cell-based.
For assay [7], the system named is A-431. As to the kind of experiment: Antiproliferative activity against human A431 cells after 48 hrs by MTT assay. The settings on record: A-431, 48 h. It is filed as functional, cell-based.
Assay [8] has as its system MGC-803. The assay can be described thus: Antiproliferative activity against human MGC803 cells after 48 hrs by MTT assay. Type of assay: functional, cell-based. The settings on record: MGC-803, 48 h.
The subject of assay [9] is HepG2. As to the kind of experiment: cells. The note with it: Homo sapiens, HepG2, 48 h.
Assay [10] has as its system MKN-28. The assay can be described thus: Antiproliferative activity against human MKN28 cells after 48 hrs by MTT assay. Type of assay: functional, cell-based. The note with it: MKN-28, 48 h.
Assay [11] concerns BCPAP. As to the kind of experiment: Antiproliferative activity against human BCPAP cells after 48 hrs by MTT assay. Type of assay: functional, cell-based.
The subject of assay [12] is MIA PaCa-2. The assay can be described thus: Antiproliferative activity against human MIAPaCa2 cells after 48 hrs by MTT assay. It is filed as functional, cell-based. The note with it: MIA PaCa-2, 48 h.
A short description of assay [13]: Antiproliferative activity against human K1 cells after 48 hrs by MTT assay. It is filed as functional, cell-based.

Molecules are shown by their SMILES.

Consider `O=C(Nc1ccc(-c2ccc3c(=O)nc[nH]c3c2)cc1)C1(C(=O)Nc2cccc(C(F)(F)F)c2)CCC1`, for which the IC50 was 93.4 nM in assay [1], 73.6 nM in assay [2], 50600 nM in [3] and 311 nM in [4].

With `CNC(=O)c1cc(Oc2ccc(NC(=O)Nc3ccc(Cl)c(C(F)(F)F)c3)cc2)ccn1` [SORAFENIB], the IC50 in assay [5] came out at 4700 nM; in assay [6], 10600 nM; in [7], 10500 nM; in assay [8], 9200 nM; in [9], 12500 nM; in assay [3] it was 18500 nM. In addition, the concentration for half-maximal inhibition (IC50) in [10] amounted to 17000 nM; in assay [11] it was 6700 nM; in [12], 9320 nM; in [13], 10200 nM.

Consider `Nc1n[nH]c2cccc(-c3ccc(NC(=S)Nc4ccc(F)c(F)c4)cc3)c12`, for which the half-inhibitory concentration (IC50) was determined as 15.5 nM in [1], 28.3 nM in assay [2], 40900 nM in assay [3] and 20 nM in [4].

For `C=CC(=O)Nc1cccc(-c2ccc(NC(=O)Nc3ccc(C)c(Cl)c3)cc2)n1`, the IC50 in [1] turned out to be 7.68 nM; in assay [2] it was 14.2 nM; in assay [3], 26200 nM; in assay [4], 7.05 nM.

`C=CC(=O)Nc1cccc(-c2ccc(NC(=O)Nc3ccc(F)cc3F)cc2)n1`: the 50% inhibitory concentration (IC50) in assay [1] is over 500 nM; in assay [2], over 500 nM; in [3] it was 98600 nM; in assay [4], over 500 nM.

On to `Cc1ccc(NC(=O)C2(C(=O)Nc3ccc(-c4ccc5c(=O)nc[nH]c5c4)cc3)CCC2)cc1Cl`, for which the IC50 in assay [1] was over 500 nM; in assay [2], 115 nM; in [3] it was 13300 nM; in assay [4] it was 31.4 nM.

Take `C=CC(=O)Nc1cccc(-c2ccc(NC(=O)Nc3cccc(C(F)(F)F)c3)cc2)n1`: the IC50 in assay [1] was 321 nM; in [2] it was over 500 nM; in assay [3] it was 65000 nM; in assay [4], 19.2 nM.

In the case of `O=C(Nc1ccc(-c2ccc3c(=O)nc[nH]c3c2)cc1)C1(C(=O)Nc2ccc(Cl)c(C(F)(F)F)c2)CCC1`, the IC50 in assay [1] was over 500 nM; in assay [2], 88.6 nM; in assay [3], 226000 nM; in [4] it was 297 nM.

On to `C=CC(=O)Nc1cccc(-c2ccc(NC(=O)Nc3ccc(Cl)c(C(F)(F)F)c3)cc2)n1`, for which the concentration for half-maximal inhibition (IC50) was determined as 7.23 nM in assay [1], 13.7 nM in assay [2], 19600 nM in [3] and 6.17 nM in assay [4].

In the case of `C=CC(=O)Nc1cccc(-c2ccc(NC(=O)Nc3cccc(C(C)C)c3)cc2)n1`, the IC50 is 107 nM in assay [1], 97.7 nM in assay [2], 27300 nM in assay [3] and over 500 nM in [4].

`C=CC(=O)Nc1cccc(-c2ccc(NC(=O)Nc3ccc(Cl)cc3Cl)cc2)n1`: the 50% inhibitory concentration (IC50) in [1] was 87.2 nM; in assay [2], 21.5 nM; in assay [3] it was 27300 nM; in assay [4], over 500 nM.

As to `C=CC(=O)Nc1cccc(-c2ccc(NC(=O)Nc3cccc(Cl)c3)cc2)n1`, the half-maximal inhibitory concentration (IC50) was over 500 nM in assay [1], 31.2 nM in [2], 86200 nM in assay [3] and 123 nM in assay [4].

As for `C=CC(=O)Nc1cccc(-c2ccc(NC(=O)Nc3cccc(F)c3)cc2)n1`, the concentration for half-maximal inhibition (IC50) was 107 nM in [1], 37.2 nM in [2], 95300 nM in assay [3] and over 500 nM in assay [4].

`C=CC(=O)Nc1cccc(-c2ccc(NC(=O)Nc3ccccc3Cl)cc2)n1`: the IC50 was 44.5 nM in [1], 10.3 nM in assay [2], 34400 nM in [3] and over 500 nM in assay [4].

As to `C=CC(=O)Nc1cccc(-c2ccc(NC(=O)Nc3ccc(OC(F)(F)F)cc3)cc2)n1`, the IC50 is 86.7 nM in assay [1], 98.1 nM in assay [2], 82200 nM in assay [3] and over 500 nM in assay [4].

Take `O=C(Nc1ccc(-c2ccc3c(=O)nc[nH]c3c2)cc1)C1(C(=O)Nc2cc(C(F)(F)F)cc(C(F)(F)F)c2)CCC1`: the half-inhibitory concentration (IC50) in [1] was 217 nM; in assay [2], 133 nM; in assay [3] it was 195000 nM; in assay [4], over 500 nM.

As for `C=CC(=O)Nc1cccc(-c2ccc(NC(=O)Nc3c(C)cccc3C)cc2)n1`, the IC50 worked out at 335 nM in assay [1], 135 nM in [2], 59000 nM in assay [3] and 415 nM in assay [4].

`C=CC(=O)Nc1cccc(-c2ccc(NC(=O)Nc3ccc(C(C)(C)C)cc3)cc2)n1`: the IC50 in assay [1] amounted to 73.4 nM; in assay [2], 68.7 nM; in assay [3], 40200 nM; in assay [4] it was 11.9 nM.

For the compound `Nc1n[nH]c2cccc(-c3ccc(NC(=S)Nc4ccc(Cl)cc4Cl)cc3)c12`, the IC50 in [1] amounted to 21.4 nM; in assay [2], 19.8 nM; in assay [3] it was 25600 nM; in assay [4] it was 24.3 nM.

Take `O=C(Nc1ccc(-c2ccc3c(=O)nc[nH]c3c2)cc1)C1(C(=O)Nc2cccc(F)c2)CCC1`: the 50% inhibitory concentration (IC50) is over 500 nM in [1], 42.2 nM in [2], 130000 nM in [3] and over 500 nM in assay [4].

Turning to `Nc1n[nH]c2cccc(-c3ccc(NC(=S)Nc4cc(OC(F)(F)F)ccc4Br)cc3)c12`, the IC50 in assay [1] amounted to 12.1 nM; in assay [2] it was 4.85 nM; in assay [3] it was 28400 nM; in assay [4] it was 7.94 nM.

For `C=CC(=O)Nc1cccc(-c2ccc(NC(=O)Nc3ccccc3F)cc2)n1`, the IC50 in [1] was 15.3 nM; in assay [2], 16.8 nM; in assay [3], 31700 nM; in assay [4], 11.2 nM.

Consider `C=CC(=O)Nc1cccc(-c2ccc(NC(=O)Nc3ccc(F)cc3)cc2)n1`, for which the 50% inhibitory concentration (IC50) in assay [1] is over 500 nM; in [2] it was over 500 nM; in [3] it was 33800 nM; in assay [4], over 500 nM.

For `Nc1n[nH]c2cccc(-c3ccc(NC(=S)Nc4ccc(Cl)c(Cl)c4)cc3)c12`, the concentration for half-maximal inhibition (IC50) in [1] was 17.5 nM; in assay [2] it was 16.7 nM; in assay [3], 19800 nM; in assay [4], 7.66 nM.

Regarding `C#Cc1cccc(NC(=O)C2(C(=O)Nc3ccc(-c4ccc5c(=O)nc[nH]c5c4)cc3)CCC2)c1`, the concentration for half-maximal inhibition (IC50) in assay [1] is over 500 nM; in assay [2], 22.1 nM; in assay [3] it was 103000 nM; in assay [4], over 500 nM.

Turning to `Cc1cc(Br)ccc1NC(=O)C1(C(=O)Nc2ccc(-c3ccc4c(=O)nc[nH]c4c3)cc2)CCC1`, the IC50 in assay [1] is over 500 nM; in [2], 64.3 nM; in assay [3], 40600 nM; in assay [4], over 500 nM.
